Measured values reported in ChEMBL document CHEMBL5346937, “Repurposing 1,2,4-oxadiazoles as SARS-CoV-2 PLpro inhibitors and investigation of their possible viral entry blockade potential” (Eur J Med Chem, 2023).

How the values were obtained:
[1] = target: Spike glycoprotein/Angiotensin-converting enzyme 2 (Severe acute respiratory syndrome coronavirus 2) (UniProt Q9BYF1+P0DTC2); test: Inhibition of SARS-CoV-2 spike protein RBD- human ACE2 interaction at 10 uM pretreated with SARS-CoV-2 spike RBD for 2 hrs followed by ACE2 addition and measured after 2 hrs by […] based ELISA analysis relative to control; assay type: protein assay; conditions: time 4.0 hrs
[2] = target: Replicase polyprotein 1ab (Severe acute respiratory syndrome coronavirus 2) (UniProt P0DTD1); test: Inhibition of SARS-CoV-2 PLpro at 10 uM using Arg-Leu-Arg-Gly-Gly-AMC as substrate preincubated for 5 mins followed by substrate addition measured after 6 mins by fluorescence based assay relative to control; conditions: time 11.0 min
[3] = test system: A549; test: Cytotoxicity against human […] A549 cells assessed as reduction in cell viability incubated for 72 hrs by MTT assay; assay type: functional; conditions: for CC50: Homo sapiens, A549
[4] = test system: WI-38; test: (§1) Cytotoxicity against human WI-38 cells assessed as reduction in cell viability incubated for 72 hrs by MTT assay; assay type: toxicity, cell-based; conditions: wi-38, 72 h
[5] = test system: SARS-CoV-2; test: Antiviral activity against SARS-CoV-2 assessed as inhibition of viral growth; assay type: functional, organism-based; conditions: Severe acute respiratory syndrome coronavirus 2
[6] = target: Replicase polyprotein 1ab (Severe acute respiratory syndrome coronavirus 2, UniProt P0DTD1); test: Inhibition of SARS-CoV-2 PLpro using Arg-Leu-Arg-Gly-Gly-AMC as substrate preincubated for 5 mins followed by substrate addition measured after 6 mins by fluorescence based assay
[7] = target: Spike glycoprotein/Angiotensin-converting enzyme 2 (Severe acute respiratory syndrome coronavirus 2, UniProt P0DTC2+Q9BYF1); test: Inhibition of SARS-CoV-2 spike protein RBD- human ACE2 interaction pretreated with SARS-CoV-2 spike RBD for 2 hrs followed by ACE2 addition and measured after 2 hrs by […] based ELISA analysis; assay type: protein assay
[8] = Octanol/water partition coefficient, logP of the compound by HPLC analysis; assay type: physicochemical
[9] = as §1; assay type: toxicity, cell-based; conditions: WI-38 cells

Chain of Spike glycoprotein/Angiotensin-converting enzyme 2 (Q9BYF1 18-805 limits assumed, other chains not shown): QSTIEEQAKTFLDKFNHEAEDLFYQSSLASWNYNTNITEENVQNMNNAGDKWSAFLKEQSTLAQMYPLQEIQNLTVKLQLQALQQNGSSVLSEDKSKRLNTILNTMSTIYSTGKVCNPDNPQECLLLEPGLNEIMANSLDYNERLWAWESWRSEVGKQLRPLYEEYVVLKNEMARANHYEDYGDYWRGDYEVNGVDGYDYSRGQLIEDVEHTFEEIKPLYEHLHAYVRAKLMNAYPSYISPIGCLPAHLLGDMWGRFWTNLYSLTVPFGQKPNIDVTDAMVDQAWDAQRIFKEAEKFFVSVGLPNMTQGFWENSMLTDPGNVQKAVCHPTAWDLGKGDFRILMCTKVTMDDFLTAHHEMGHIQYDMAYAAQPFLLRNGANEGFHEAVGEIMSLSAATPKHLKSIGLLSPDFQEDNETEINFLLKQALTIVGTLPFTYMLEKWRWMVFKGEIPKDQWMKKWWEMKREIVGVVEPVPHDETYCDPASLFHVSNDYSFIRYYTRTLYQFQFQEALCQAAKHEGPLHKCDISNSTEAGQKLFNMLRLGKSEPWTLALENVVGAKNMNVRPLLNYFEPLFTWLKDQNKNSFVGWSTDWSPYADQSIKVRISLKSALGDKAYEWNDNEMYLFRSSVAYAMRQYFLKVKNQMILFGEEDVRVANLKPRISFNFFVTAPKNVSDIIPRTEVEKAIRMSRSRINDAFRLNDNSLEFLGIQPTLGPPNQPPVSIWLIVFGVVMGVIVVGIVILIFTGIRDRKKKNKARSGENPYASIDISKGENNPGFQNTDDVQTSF

SMILES: Nc1ccccc1-c1noc(-c2ccccc2O)n1
- inhibition [1]: 18.1%
- inhibition [2]: 13.6%
- EC100 [3]: 4.114 µM
- CC50 [3]: 22 µM
- CC50 [4]: 32.4 µM
- EC100 [4]: 6.474 µM

SMILES: CCOC(=O)CN1C(=O)COc2ccccc2-c2nc(no2)-c2ccccc21
- inhibition [1]: 15.6%
- inhibition [2]: 18.1%
- EC100 [3]: 7.127 µM
- CC50 [3]: 14.2 µM
- CC50 [4]: 31.6 µM
- EC100 [4]: 6.313 µM

SMILES: CC(=O)Oc1ccccc1-c1nc(-c2ccccc2N(C(C)=O)C(C)=O)no1
- inhibition [1]: 44.4%
- inhibition [2]: 17.1%
- EC100 [3]: 0.207 µM
- CC50 [3]: 20.5 µM
- EC100 [4]: 0.641 µM

SMILES: Nc1ccccc1-c1noc(-c2ccccc2N)n1
- inhibition [1]: 26.1%
- inhibition [2]: 16.2%
- EC100 [3]: 12.25 µM
- CC50 [3]: 29 µM
- CC50 [4]: 48.7 µM
- EC100 [4]: 9.738 µM

SMILES: CCN(CC)CCCC(C)Nc1ccnc2cc(Cl)ccc12 (configuration not stated) [CHLOROQUINE]
- IC50 [5]: 1.13 µM

SMILES: O=CNc1ccccc1-c1noc(-c2ccccc2O)n1
- inhibition [1]: 44.3%
- inhibition [2]: 35.1%
- EC100 [3]: 15.708 µM
- CC50 [3]: 31.4 µM
- CC50 [4]: 40.6 µM
- EC100 [4]: 8.116 µM

SMILES: Nc1ccccc1-c1noc(-c2ccncc2)n1
- inhibition [1]: 65.6%
- inhibition [2]: 58.6%
- IC50 ([6]; read-out: IC50): 7.2 µM
- IC50 ([6]; read-out: pIC50 (converted)): 7.21 µM
- EC100 [3]: 8.352 µM
- CC50 [3]: 45.8 µM
- IC50 ([7]; read-out: IC50): 8.67 µM
- IC50 ([7]; read-out: pIC50 (converted)): 8.69 µM
- CC50 [4]: 51.8 µM
- EC100 [4]: 10.356 µM
- logP [8]: 3.8

SMILES: Nc1ccccc1-c1nc(-c2ccccc2)no1
- inhibition [1]: 31.4%
- inhibition [2]: 21.1%
- EC100 [3]: 11.681 µM
- CC50 [3]: 24.7 µM
- CC50 [4]: 57.2 µM
- EC100 [4]: 19.059 µM

SMILES: Oc1ccccc1-c1noc(-c2ccccc2O)n1
- inhibition [2]: 11.7%
- EC100 [3]: 3.36 µM
- CC50 [3]: 19.5 µM
- CC50 [4]: 26 µM
- EC100 [4]: 5.208 µM

SMILES: Nc1ccccc1-c1nc(-c2ccc(C(F)(F)F)cc2)no1
- inhibition [2]: 5%
- EC100 [3]: 0.373 µM
- CC50 [3]: 2.37 µM
- CC50 [4]: 5.78 µM
- EC100 [4]: 1.156 µM

SMILES: [N-]=[N+]=Nc1ccccc1-c1noc(-c2ccccc2O)n1
- inhibition [2]: 1.1%
- EC100 [3]: 6.707 µM
- CC50 [3]: 28.2 µM
- CC50 [4]: 38.5 µM
- EC100 [4]: 7.701 µM

SMILES: Cc1ncc(COP(=O)([O-])O)c(/C=N/c2ccccc2-c2noc(-c3ccccc3O)n2)c1O.[Na+]
- inhibition [1]: 26.1%
- inhibition [2]: 13.9%
- EC100 [3]: 2.718 µM
- CC50 [3]: 1.03 µM
- CC50 [4]: 3.21 µM
- EC100 [4]: 4.956 µM

SMILES: CCN(CCO)CCCC(C)Nc1ccnc2cc(Cl)ccc12 (configuration not stated) [HYDROXYCHLOROQUINE]
- IC50 [5]: 0.72 µM

SMILES: Cc1ncc(COP(=O)([O-])O)c(/C=N/c2ccccc2-c2noc(-c3ccccc3)n2)c1O.[Na+]
- inhibition [1]: 36.7%
- inhibition [2]: 22.5%
- EC100 [3]: 0.655 µM
- CC50 [3]: 6.46 µM
- CC50 [4]: 10.1 µM
- EC100 [4]: 2.03 µM

SMILES: O=C(O)CN1C(=O)COc2ccccc2-c2nc(no2)-c2ccccc21
- inhibition [1]: 10.6%
- inhibition [2]: 5.9%
- EC100 [3]: 3.695 µM
- CC50 [3]: 19.6 µM
- CC50 [4]: 23.8 µM
- EC100 [4]: 5.727 µM

SMILES: Nc1ccccc1-c1noc(-c2ccccc2)n1
- inhibition [1]: 23.3%
- inhibition [2]: 20.8%
- EC100 [3]: 5.886 µM
- CC50 [3]: 28.7 µM
- CC50 at 72 h [9]: 36.5 µM
- EC100 [4]: 7.299 µM
